According to PubChem BioAssay (NCI):
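Test compounds were applied to cells in 96-well plates for 48 hours at 5 doses. GI50: concentration for 50% inhibition of growth. Definition used: TGI = concentration required for complete inhibition of growth.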

Tests used:
Assay in all cases: NCI anticancer screen, dose series, 48 h
786-0 renal = system: 786-0 renal
A498 renal = system: A498 renal
A549 NSCLC = system: A549 NSCLC
ACHN renal = system: ACHN renal
BT-549 breast = system: BT-549 breast
CAKI-1 renal = system: CAKI-1 renal
COLO 205 colon = system: COLO 205 colon
DU-145 prostate = system: DU-145 prostate
EKVX NSCLC = system: EKVX NSCLC
HCT-116 colon = system: HCT-116 colon
HCT-15 colon = system: HCT-15 colon
HL-60(TB) leukemia = system: HL-60(TB) leukemia
HOP-62 NSCLC = system: HOP-62 NSCLC
HOP-92 NSCLC = system: HOP-92 NSCLC
HS 578T breast = system: HS 578T breast
HT29 colon = system: HT29 colon
IGROV1 ovarian = system: IGROV1 ovarian
K-562 leukemia = system: K-562 leukemia
KM12 colon = system: KM12 colon
LOX IMVI melanoma = system: LOX IMVI melanoma
M14 melanoma = system: M14 melanoma
MCF7 breast = system: MCF7 breast
MDA-MB-231 breast = system: MDA-MB-231 breast
MDA-MB-435 = system: MDA-MB-435
MOLT-4 leukemia = system: MOLT-4 leukemia
NCI-H226 lung = system: NCI-H226 lung
NCI-H23 lung = system: NCI-H23 lung
NCI-H460 lung = system: NCI-H460 lung
NCI-H522 lung = system: NCI-H522 lung
NCI/ADR-RES ovarian = system: NCI/ADR-RES ovarian
OVCAR-3 ovarian = system: OVCAR-3 ovarian
OVCAR-4 ovarian = system: OVCAR-4 ovarian
OVCAR-5 ovarian = system: OVCAR-5 ovarian
OVCAR-8 ovarian = system: OVCAR-8 ovarian
PC-3 prostate = system: PC-3 prostate
RPMI-8226 leukemia = system: RPMI-8226 leukemia
RXF 393 renal = system: RXF 393 renal
SF-268 CNS = system: SF-268 CNS
SF-295 CNS = system: SF-295 CNS
SF-539 CNS = system: SF-539 CNS
SK-MEL-2 melanoma = system: SK-MEL-2 melanoma
SK-MEL-28 melanoma = system: SK-MEL-28 melanoma
SK-MEL-5 melanoma = system: SK-MEL-5 melanoma
SK-OV-3 ovarian = system: SK-OV-3 ovarian
SN12C renal = system: SN12C renal
SNB-19 CNS = system: SNB-19 CNS
SNB-75 CNS = system: SNB-75 CNS
SR leukemia = system: SR leukemia
SW-620 colon = system: SW-620 colon
TK-10 renal = system: TK-10 renal
U251 CNS = system: U251 CNS
UACC-257 melanoma = system: UACC-257 melanoma
UACC-62 melanoma = system: UACC-62 melanoma
UO-31 renal = system: UO-31 renal

Work on `CCOC(=O)c1c(-c2ccccc2)[n+](=O)c2ccc(Cl)cc2n1[O-]` yielded a GI50 (786-0 renal) of 6.98 µM, a TGI (786-0 renal) of 19.9 µM and a GI50 (A498 renal) of 12.7 µM. It also gave a TGI (A498 renal) of 26.2 µM, a GI50 (A549 NSCLC) of 8.46 µM and a TGI (A549 NSCLC) of 20.6 µM. The GI50 (ACHN renal) was 2.93 µM, the TGI (ACHN renal) was 11.3 µM and the GI50 (BT-549 breast) was 3.87 µM. For the same molecule, the TGI (BT-549 breast) was 15.7 µM, the GI50 (CAKI-1 renal) was 3.82 µM and the TGI (CAKI-1 renal) was 13.2 µM. The GI50 (COLO 205 colon) was 3.89 µM, the TGI (COLO 205 colon) was 13.6 µM and the GI50 (DU-145 prostate) was 3.22 µM. The TGI (DU-145 prostate) was 11.9 µM, the GI50 (EKVX NSCLC) was 2.4 µM and the TGI (EKVX NSCLC) was 8.32 µM. The GI50 (HCT-116 colon) was 3.72 µM, the TGI (HCT-116 colon) was 16.4 µM and the GI50 (HCT-15 colon) was 3.89 µM. It also gave a TGI (HCT-15 colon) of 13.6 µM, a GI50 (HL-60(TB) leukemia) of 5.66 µM and a TGI (HL-60(TB) leukemia) of 20.3 µM. The GI50 (HOP-62 NSCLC) was 8.64 µM, the TGI (HOP-62 NSCLC) was 20.8 µM and the GI50 (HOP-92 NSCLC) was 1.93 µM. For the same molecule, the TGI (HOP-92 NSCLC) was 4.91 µM, the GI50 (HS 578T breast) was 4.63 µM and the TGI (HS 578T breast) was 31.8 µM. For the same molecule, the GI50 (HT29 colon) was 11 µM, the TGI (HT29 colon) was 23 µM and the GI50 (IGROV1 ovarian) was 3.93 µM. It also gave a TGI (IGROV1 ovarian) of 16.5 µM, a GI50 (K-562 leukemia) of 4.69 µM and a TGI (K-562 leukemia) of 18.5 µM. For the same molecule, the GI50 (KM12 colon) was 5.43 µM, the TGI (KM12 colon) was 18 µM and the GI50 (LOX IMVI melanoma) was 1.66 µM. It also gave a TGI (LOX IMVI melanoma) of 3.91 µM, a GI50 (M14 melanoma) of 10.1 µM and a TGI (M14 melanoma) of 21.7 µM. The GI50 (MCF7 breast) was 5.37 µM, the TGI (MCF7 breast) was 40.6 µM and the GI50 (MDA-MB-231 breast) was 3.58 µM. For the same molecule, the TGI (MDA-MB-231 breast) was 13.8 µM, the GI50 (MDA-MB-435) was 10.2 µM and the TGI (MDA-MB-435) was 26.4 µM. It also gave a GI50 (MOLT-4 leukemia) of 4.93 µM, a TGI (MOLT-4 leukemia) of 45.6 µM and a GI50 (NCI-H226 lung) of 5.2 µM. For the same molecule, the TGI (NCI-H226 lung) was 17.4 µM, the GI50 (NCI-H23 lung) was 11.2 µM and the TGI (NCI-H23 lung) was 23.4 µM. For the same molecule, the GI50 (NCI-H460 lung) was 5.36 µM, the TGI (NCI-H460 lung) was 17.9 µM and the GI50 (NCI-H522 lung) was greater than 100 µM. The TGI (NCI-H522 lung) was greater than 100 µM, the GI50 (NCI/ADR-RES ovarian) was 5.27 µM and the TGI (NCI/ADR-RES ovarian) was 18.1 µM. It also gave a GI50 (OVCAR-3 ovarian) of 3.88 µM, a TGI (OVCAR-3 ovarian) of 15.8 µM and a GI50 (OVCAR-4 ovarian) of 4.25 µM. It also gave a TGI (OVCAR-4 ovarian) of 22.9 µM, a GI50 (OVCAR-5 ovarian) of 7.12 µM and a TGI (OVCAR-5 ovarian) of 20.2 µM. For the same molecule, the GI50 (OVCAR-8 ovarian) was 4.46 µM, the TGI (OVCAR-8 ovarian) was 16.8 µM and the GI50 (PC-3 prostate) was 3.05 µM. For the same molecule, the TGI (PC-3 prostate) was 12 µM, the GI50 (RPMI-8226 leukemia) was 2.44 µM and the TGI (RPMI-8226 leukemia) was 6.62 µM. It also gave a GI50 (RXF 393 renal) of 19.3 µM, a TGI (RXF 393 renal) of 49.5 µM and a GI50 (SF-268 CNS) of 4.28 µM. The TGI (SF-268 CNS) was 32.2 µM, the GI50 (SF-295 CNS) was 4.87 µM and the TGI (SF-295 CNS) was 19.1 µM. The GI50 (SF-539 CNS) was 2.97 µM, the TGI (SF-539 CNS) was 13.1 µM and the GI50 (SK-MEL-2 melanoma) was 40 µM. It also gave a TGI (SK-MEL-2 melanoma) greater than 100 µM, a GI50 (SK-MEL-28 melanoma) of 18 µM and a TGI (SK-MEL-28 melanoma) of 52.7 µM. It also gave a GI50 (SK-MEL-5 melanoma) of 1.63 µM, a TGI (SK-MEL-5 melanoma) of 3.33 µM and a GI50 (SK-OV-3 ovarian) of 15.5 µM. For the same molecule, the TGI (SK-OV-3 ovarian) was greater than 100 µM, the GI50 (SN12C renal) was 3.38 µM and the TGI (SN12C renal) was 13.1 µM. For the same molecule, the GI50 (SNB-19 CNS) was 10.4 µM, the TGI (SNB-19 CNS) was greater than 100 µM and the GI50 (SNB-75 CNS) was 3.18 µM. The TGI (SNB-75 CNS) was 18.8 µM, the GI50 (SR leukemia) was 2.59 µM and the TGI (SR leukemia) was 11 µM. The GI50 (SW-620 colon) was 5.59 µM, the TGI (SW-620 colon) was 17.7 µM and the GI50 (TK-10 renal) was 4.55 µM. It also gave a TGI (TK-10 renal) of 23.6 µM, a GI50 (U251 CNS) of 2.68 µM and a TGI (U251 CNS) of 8.57 µM. The GI50 (UACC-257 melanoma) was 4.06 µM, the TGI (UACC-257 melanoma) was 16.6 µM and the GI50 (UACC-62 melanoma) was 12.5 µM. It also gave a TGI (UACC-62 melanoma) of 25.4 µM, a GI50 (UO-31 renal) of 1.92 µM and a TGI (UO-31 renal) of 3.69 µM.
